In ChEMBL document CHEMBL1141235, “Synthesis and preliminary evaluation of [3H]PSB-0413, a selective antagonist radioligand for platelet P2Y12 receptors” (Bioorg Med Chem Lett, 2005) one finds Kd data, which are given here for one molecule.

Broadly, the Kd is the free concentration of one partner at which half of the binding sites on the other are occupied at equilibrium, for simple one-to-one binding. Lower therefore signals higher affinity.

Molecules are shown by their SMILES.

For this experiment, the target named is P2Y purinoceptor 12 (Homo sapiens, UniProt Q9H244). As to the kind of experiment: Binding affinity to P2Y12 receptor expressed in human platelets from 0.047 to 50 nM.
Chain of P2Y purinoceptor 12 (Q9H244 whole entry): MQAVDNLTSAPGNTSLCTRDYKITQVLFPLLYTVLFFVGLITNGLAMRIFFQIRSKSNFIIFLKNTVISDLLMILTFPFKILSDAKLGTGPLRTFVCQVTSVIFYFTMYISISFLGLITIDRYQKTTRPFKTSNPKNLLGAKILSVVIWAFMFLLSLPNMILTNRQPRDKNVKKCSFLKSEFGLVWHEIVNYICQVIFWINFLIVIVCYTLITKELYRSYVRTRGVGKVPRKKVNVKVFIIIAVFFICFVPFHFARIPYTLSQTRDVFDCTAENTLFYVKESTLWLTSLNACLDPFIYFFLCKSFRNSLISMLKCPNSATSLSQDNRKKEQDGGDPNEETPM

`[3H]C([3H])([3H])C([3H])([3H])CSc1nc(N)c2ncn([C@@H]3O[C@H](COP(=O)(O)OP(=O)(O)C(Cl)(Cl)P(=O)(O)O)[C@@H](O)[C@H]3O)c2n1` gave a dissociation constant (Kd) of 4.57 nM.
